# Test results: patent US20260103479A1, “PRODRUGS OF OPICAPONE” (BIAL- PORTELA & CA, S.A., priority 2022, published 2026)
# Where two headings read alike, the source gives them in different places.
# Tests used:
# erythrocyte S-COMT = target: T1, erythrocyte S-COMT (Rattus norvegicus, UniProt P22734); test: Subcutaneous pharmacodynamics: erythrocyte S-COMT activity (adrenaline to metanephrine); assay type: in vivo, male Wistar rats; conditions: sc, s.c. 3 mg/kg
# T1 construct: from tissue; host or cells: erythrocytes of male Wistar rats (haemolysate supernatant, 20 000 x g)
# T1 sequence (P22734 1-221 isoform P22734-2): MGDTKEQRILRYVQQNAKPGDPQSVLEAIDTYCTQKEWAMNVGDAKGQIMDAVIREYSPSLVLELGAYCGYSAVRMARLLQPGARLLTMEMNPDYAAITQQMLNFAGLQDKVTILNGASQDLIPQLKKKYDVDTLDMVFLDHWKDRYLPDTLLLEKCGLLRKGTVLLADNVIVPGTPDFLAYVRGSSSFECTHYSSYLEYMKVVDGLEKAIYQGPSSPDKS
# Procedure: The pharmacodynamic properties of compounds 1 and 4 compared to oral administered micronized crystalline opicapone were assessed by subcutaneous injection to 4 male Wistar rats (3 mg/kg; DMSO:20% HPBCD (1:9)) then measurement of erythrocyte S-COMT activity over time.
# During the studies, blood was collected at different time points, from tail vein, spun at 1500×g in a refrigerated centrifuge (4° C.) for 15 min, and the plasma and erythrocytes obtained were stored at −80° C. until further analysis. The plasma samples collected were analysed for compound 1, compound 4 and opicapone exposure, as previously described
# Erythrocyte S-COMT activity was evaluated by the ability to methylate adrenaline to metanephrine. Aliquots of erythrocytes were haemolyzed by addition of 4 volumes of ice-cold ultrapure water and homogenization in a bead mill homogenizer, using glass beads, followed by 10 minutes incubation on wet ice. After centrifugation (20 000×g, 20 minutes, 4° C.), the supernatant containing S-COMT was quantified for total protein using Bradford assay. Supernatants were diluted with water to 4 mg total protein per ml. 100 μL of these diluted supernatants were then pre-incubated in a 96-well plate for 20 min with 80 μL of phosphate buffer (10 mM, pH 7.8); thereafter, the reaction mixture was incubated for 10 min with adrenaline (10 mM; 20 μL) in the presence of a saturating concentration of S-adenosyl-L-methionine, the methyl donor (500 μM). The incubation medium also contained pargyline (100 μM), MgCl2, (100 μM) and EGTA (1 mM). The pre-incubation and incubation were carried out at 37° C., under conditions of light protection with continuous shaking and without oxygenation. At the end of the incubation period the plate was transferred to ice and the reaction was stopped by the addition of 15 μL of glacial acetic acid. 60 μL of each sample were then transferred to a new 96-well containing 400 μL of 0.1% formic acid, followed by plate centrifugation (2000×g, 5 minutes 4° C.). The supernatants were used for the quantification of metanephrine by LC-MS/MS.
# [1] = Stability in buffer at pH 1.2, 4.5 and 6.8; assay type: physicochemical; conditions: 2500 ng/mL, 37° C.; for stability in buffer at pH 1.2 / stability in buffer at pH 4.5 / stability in buffer at pH 6.8: 4 hours
# Procedure: The stability of 2500 ng/mL of compounds 1 and 4 was assessed at different pH values of 1.2, 4.5 and 6.8 over 4 hours at 37° C. • Buffer solutions were prepared as follows: • Buffer solution pH 1.2: • To prepare 1L: • 3.73 g potassium chloride • 7 mL HCl37% • Add purified water • Check/Adjust pH to 1.20±0.05 (using solutions: HCl 1M and/or NaOH 1M) • Buffer solution pH 4.5 • To prepare 1L: • 2.99 g sodium acetate trihydrate • 14 mL acetic acid 2M • Add purified water • Check/Adjust pH to 4.50±0.05 (using solutions: acetic acid 2M and/or NaOH 1M) • Buffer solution pH 6.8 • To prepare 1L: • 6.81 g potassium dihydrogen phosphate • 22 mL NaOH 1M • Add purified water • Check/Adjust pH to 6.80±0.05 (using solutions: HCl 1M and/or NaOH 1M)
# physchem = conditions: water, thermodynamic from solid
# Procedure: (§1) The solubility studies were completed at room temperature. For the determination of the solubility increasing amounts of distilled water was added to 5 mg of the test sample until its complete dissolution of the product observed by naked eye.
# [2] = Aqueous solubility in distilled (pure) water at room temperature; conditions: thermodynamic from solid
# Procedure: as §1
# [3] = Long-term stability studies in the solid state; assay type: physicochemical
# L-DOPA metabolism = test: Subcutaneous pharmacodynamics: impact on L-DOPA and 3-OMD plasma levels; assay type: in vivo, male Wistar rats; conditions: s.c. 3 mg/kg with 12 mg/kg L-DOPA plus 3 mg/kg benserazide vs without compound; rat
# Procedure: As proof-of-concept, the effects of compound 4 on L-DOPA metabolism was evaluated in 4 male Wistar rats. Animals were subcutaneously injected with a single formulation (in DMSO:PEG 400:30% SBEBCD (1:2:2)) containing 12 mg/kg of L-DOPA plus 3 mg/kg of benserazide with or without 3 mg/kg of compound 4. Plasma samples were collected as described above and analyzed for levels of L-DOPA and its metabolite 3-O-methyldopa (3-OMD).
# [4] = 2 h after dosing, read-out: maximal inhibition of COMT activity in erythrocytes
# [5] = at least until 8 h post-dosing, read-out: inhibition of COMT maintained
Compound,inhibition at 3 mg/kg (erythrocyte S-COMT; [4]) [%],inhibition at 3 mg/kg (erythrocyte S-COMT; [5]) [%],solubility in buffer at pH 1.2 [1],stability in buffer at pH 1.2 [1],stability in buffer at pH 4.5 [1],stability in buffer at pH 6.8 [1],solubility (physchem) [µg/mL],solubility [2] [µg/mL],long-term stability in the solid state [3],increase in the AUClast of circulating L-DOPA (L-DOPA metabolism) [fold],levels of L-DOPA metabolite 3-OMD (L-DOPA metabolism)
"Cc1c(Cl)c(C)[n+]([O-])c(Cl)c1-c1noc(-c2cc(OP(=O)(O)O)c(O)c([N+](=O)[O-])c2)n1 [Compound 1, 2,5-dichloro-3-(5-(4-hydroxy-3-nitro-5-(phosphonooxy)phenyl)-1,2,4-oxadiazol-3-yl)-4,6-dimethylpyridine 1-oxide]",96,> 80,not immediately soluble,stable,stable,stable,6000,,,,
"Cc1c(Cl)c(C)[n+]([O-])c(Cl)c1-c1noc(-c2cc(OCOP(=O)(O)O)c(O)c([N+](=O)[O-])c2)n1 [Compound 4, 2,5-dichloro-3-(5-(4-hydroxy-3-nitro-5-((phosphonooxy)methoxy)phenyl)-1,2,4-oxadiazol-3-yl)-4,6-dimethylpyridine 1-oxide]",94,> 80,,stable,stable,stable,,> 500,particularly stable,1.7,decrease
